Some test systems named below: SK-MEL-2; CCRF-CEM; HOP-62; COLO 205; HCT-15; UACC-257; Hs-578T; A498; MDA-MB-435; EKVX; SK-OV-3; RPMI-8226; NCI/ADR-RES; SN12C; SR; MOLT-4; NCI-H226; NCI-H23; SW-620.
Holding throughout (assay): growth of human tumour cells (NCI), 48 h

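96-well plates; 48 h exposure; 5 concentrations. Endpoints by linear interpolation between flanking doses. Not reached: highest tested concentration assigned. The concentration for 50% growth inhibition is given as GI50.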 Activity calls are given as the source filed them. Rule as the data show it: active = GI50 up to about 1.1 µM and inactive = higher.

For the compound `CC/C(Cl)=N\OC(=O)Nc1ccc(C#N)cc1`, the GI50 in the experiment with SK-MEL-2 is 15.9 µM (inactive); with CCRF-CEM it was 1.63 µM (inactive); in the experiment on HOP-62, 17.2 µM (inactive); in the experiment on COLO 205, 1.82 µM (inactive); in the experiment on HCT-15 it was 7.93 µM; in the experiment with UACC-257 it was 16.1 µM (inactive). The GI50 was 21.9 µM (inactive) in the experiment on Hs-578T; 16.6 µM (inactive) with A498; 15.6 µM (inactive) in the experiment on MDA-MB-435; 13.3 µM (inactive) in the experiment with EKVX; 4.94 µM (inactive) in the experiment with SK-OV-3; 2.28 µM (inactive) in the experiment on RPMI-8226. Moreover, the GI50 in the experiment with NCI/ADR-RES is 13.3 µM (inactive); in the experiment with SN12C, 16.4 µM (inactive); in the experiment on SR, 3.13 µM (inactive); in the experiment on MOLT-4, 2.28 µM (inactive); with NCI-H226, 16.6 µM (inactive); in the experiment on NCI-H23, 17.2 µM (inactive). Also, in the experiment with SW-620, the GI50 was 3.28 µM (inactive).
Take `O=C1NN(c2ccccc2)C(=O)C2C3c4ccccc4C(c4ccccc43)C12` (configuration not stated): the GI50 with SK-MEL-2 is > 100 µM (inactive); in the experiment with CCRF-CEM, 22.5 µM (inactive); in the experiment on HOP-62 it was 56.8 µM (inactive); in the experiment with COLO 205, 78.2 µM (inactive); in the experiment with HCT-15 it was 89.1 µM; with UACC-257 it was 27.6 µM (inactive). Further, the GI50 in the experiment on Hs-578T was 83.2 µM (inactive); with A498 it was 32.2 µM (inactive); in the experiment on MDA-MB-435 it was > 100 µM (inactive); with EKVX, > 100 µM (inactive); with SK-OV-3 it was > 100 µM (inactive); with RPMI-8226 it was > 100 µM (inactive). In addition, the GI50 in the experiment with NCI/ADR-RES was > 100 µM (inactive); in the experiment on SN12C it was 77.1 µM (inactive); in the experiment with SR, > 100 µM (inactive); in the experiment on MOLT-4, 6.22 µM (inactive); with NCI-H226, > 100 µM (inactive); in the experiment on NCI-H23, > 100 µM (inactive). Further, the GI50 in the experiment on SW-620 is > 100 µM (inactive).
`COC(=O)c1cc2c(cc1CC1Cc3cc4c(cc3C1)CCC4)CCC2`: the GI50 in the experiment on SK-MEL-2 was 24.3 µM (inactive); in the experiment with CCRF-CEM, 16.9 µM (inactive); in the experiment with HOP-62, > 100 µM (inactive); in the experiment on COLO 205 it was 40.5 µM (inactive); in the experiment with HCT-15, 59.2 µM; in the experiment with UACC-257, 25.8 µM (inactive). The GI50 is 66.8 µM (inactive) with Hs-578T; > 100 µM (inactive) with A498; 42.6 µM (inactive) in the experiment with MDA-MB-435; 52.6 µM (inactive) in the experiment with EKVX; > 100 µM (inactive) in the experiment with SK-OV-3; 21.8 µM (inactive) in the experiment on RPMI-8226. Also, the GI50 with NCI/ADR-RES is > 100 µM (inactive); in the experiment with SN12C, 79.1 µM (inactive); with SR it was 19.1 µM (inactive); in the experiment on MOLT-4, 17.2 µM (inactive); in the experiment with NCI-H226, > 100 µM (inactive); in the experiment on NCI-H23, 44.4 µM (inactive). For the same compound, the GI50 in the experiment on SW-620 is > 100 µM (inactive).
For the compound `Br/C(=N\N=c1/nn[nH][nH]1)c1ccncc1`, the GI50 was > 100 µM (inactive) in the experiment on SK-MEL-2; > 100 µM (inactive) in the experiment with CCRF-CEM; > 100 µM (inactive) in the experiment on HOP-62; > 100 µM (inactive) in the experiment on COLO 205; greater than 100 µM with HCT-15; > 100 µM (inactive) with UACC-257. Besides, the GI50 in the experiment with Hs-578T, in the experiment with A498, with MDA-MB-435, in the experiment on EKVX, with SK-OV-3 and in the experiment on RPMI-8226 was > 100 µM (inactive) each time. Also, the GI50 with NCI/ADR-RES, in the experiment with SN12C, in the experiment on SR, in the experiment with MOLT-4, in the experiment with NCI-H226 and in the experiment with NCI-H23 was > 100 µM (inactive) each time. Besides, in the experiment with SW-620, the GI50 was > 100 µM (inactive).
With `CCCCCc1c(CCCC)c(=O)[nH]c2cc(CNCC(OC)OC)ccc12`, the GI50 is 11.7 µM (inactive) with SK-MEL-2; 4.05 µM (inactive) with CCRF-CEM; 18.2 µM (inactive) with HOP-62; 2.41 µM (inactive) in the experiment with COLO 205; 9.53 µM in the experiment with HCT-15; 4.92 µM (inactive) in the experiment with UACC-257. In addition, the GI50 is 18.5 µM (inactive) with Hs-578T; 15.1 µM (inactive) in the experiment with A498; 11.4 µM (inactive) with MDA-MB-435; 16.2 µM (inactive) with EKVX; 18.1 µM (inactive) in the experiment with SK-OV-3; 4.08 µM (inactive) in the experiment on RPMI-8226. The GI50 in the experiment on NCI/ADR-RES is 12.4 µM (inactive); with SN12C, 14.2 µM (inactive); in the experiment with SR, 6.9 µM (inactive); in the experiment on MOLT-4, 5.33 µM (inactive); in the experiment on NCI-H226, 20.6 µM (inactive); in the experiment on NCI-H23, 17.4 µM (inactive). For the same compound, the GI50 with SW-620 is 5.79 µM (inactive).
With `Cc1nc2ccc([N+](=O)[O-])cc2c(=O)n1C(=S)Nc1cccc(Cl)c1`, the GI50 was 6.18 µM (inactive) with SK-MEL-2; 12.9 µM (inactive) in the experiment with CCRF-CEM; 19.2 µM (inactive) in the experiment with HOP-62; 14 µM (inactive) in the experiment on COLO 205; 12.9 µM in the experiment with HCT-15; 17.3 µM (inactive) in the experiment with UACC-257. Also, the GI50 was 21.5 µM (inactive) in the experiment with Hs-578T; 9.4 µM (inactive) with A498; 17.7 µM (inactive) with MDA-MB-435; 18.7 µM (inactive) with EKVX; 22.5 µM (inactive) in the experiment on SK-OV-3; 4.06 µM (inactive) in the experiment on RPMI-8226. The GI50 with NCI/ADR-RES is 19.4 µM (inactive); in the experiment on SN12C, 20 µM (inactive); with SR, 31 µM (inactive); in the experiment on MOLT-4, 17.9 µM (inactive); in the experiment with NCI-H226, 14.9 µM (inactive); in the experiment with NCI-H23 it was 13.8 µM (inactive). The GI50 in the experiment on SW-620 was 22 µM (inactive).
For the compound `Nc1ccc2nc(N)n[n+]([O-])c2c1`, the GI50 with SK-MEL-2 was > 100 µM (inactive); in the experiment on CCRF-CEM, > 100 µM (inactive); with HOP-62, > 100 µM (inactive); in the experiment with COLO 205 it was > 100 µM (inactive); in the experiment on HCT-15, greater than 100 µM; with UACC-257 it was > 100 µM (inactive). Besides, the GI50 with Hs-578T, in the experiment on A498, in the experiment with MDA-MB-435, with EKVX, in the experiment with SK-OV-3 and in the experiment on RPMI-8226 was > 100 µM (inactive) in each case. For the same compound, the GI50 in the experiment with NCI/ADR-RES, with SN12C, with SR, with MOLT-4, in the experiment with NCI-H226 and with NCI-H23 was > 100 µM (inactive) each time. The GI50 with SW-620 is > 100 µM (inactive).
For the compound `O=C1c2ccccc2C(=O)c2c1ccc1c2OCO1`, the GI50 in the experiment on SK-MEL-2 is > 100 µM (inactive); with CCRF-CEM, > 10 µM (inactive); in the experiment on HOP-62 it was > 100 µM (inactive); in the experiment on COLO 205, > 100 µM (inactive); in the experiment with HCT-15, greater than 100 µM; with UACC-257 it was > 100 µM (inactive). The GI50 in the experiment with Hs-578T, in the experiment on A498, in the experiment on MDA-MB-435, in the experiment on EKVX, in the experiment on SK-OV-3 and with RPMI-8226 was > 100 µM (inactive) in each case. The GI50 is > 100 µM (inactive) in the experiment on NCI/ADR-RES; > 100 µM (inactive) in the experiment with SN12C; > 100 µM (inactive) in the experiment with SR; > 100 µM (inactive) in the experiment on MOLT-4; 58.7 µM (inactive) in the experiment with NCI-H226; > 100 µM (inactive) in the experiment with NCI-H23. The GI50 with SW-620 is > 100 µM (inactive).

Values taken from ChEMBL document CHEMBL1201862, “PubChem BioAssay data set” (2004).
